Columns and labels:
Experiment in all cases: relative viability (nuclei count vs DMSO), 5 days (fraction); higher = more cells survive
A-427 = tested on: A-427
Summary of the method: (§1)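 Five library-drug doses in √10 steps were combined with a fixed anchor-drug dose, or a single drug was given alone, by pin tool to lung cancer cell lines in 1536-well plates the day after seeding. Nuclei were stained and counted after 5 days. Relative viability is the nuclei count in treated wells over that in vehicle wells, taken as the median of duplicate plates.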

NCI-H727 = tested on: NCI-H727
Summary of the method: as §1

LU99A = tested on: LU99A
Summary of the method: as §1

EKVX = tested on: EKVX
Summary of the method: as §1

PC-14 = tested on: PC-14
Summary of the method: as §1

NCI-H322M = tested on: NCI-H322M
Summary of the method: as §1

SK-LU-1 = tested on: SK-LU-1
Summary of the method: as §1

NCI-H1793 = tested on: NCI-H1793
Summary of the method: as §1

NCI-H1666 = tested on: NCI-H1666
Summary of the method: as §1

LOU-NH91 = tested on: LOU-NH91
Summary of the method: as §1

COR-L23 = tested on: COR-L23
Summary of the method: as §1

NCI-H1944 = tested on: NCI-H1944
Summary of the method: as §1

NCI-H1650 = tested on: NCI-H1650
Summary of the method: as §1

NCI-H520 = tested on: NCI-H520
Summary of the method: as §1

HARA = tested on: HARA
Summary of the method: as §1

PC-3 [JPC-3] = tested on: PC-3 [JPC-3]
Summary of the method: as §1

NCI-H3122 = tested on: NCI-H3122
Summary of the method: as §1

NCI-H2170 = tested on: NCI-H2170
Summary of the method: as §1

LCLC-103H = tested on: LCLC-103H
Summary of the method: as §1

NCI-H1915 = tested on: NCI-H1915
Summary of the method: as §1

BEN = tested on: BEN
Summary of the method: as §1

LC-2-ad = tested on: LC-2-ad
Summary of the method: as §1

NCI-H2087 = tested on: NCI-H2087
Summary of the method: as §1

Oc1nc(-c2ccc(C(F)(F)F)cc2)nc2c1CSCC2 [XAV939] + Nc1ncn([C@H]2C[C@H](O)[C@@H](CO)O2)c(=O)n1 [Decitabine] (partner 2 µM)
relative viability (A-427; first compound 0.08 µM): 0.627
relative viability (A-427; first compound 0.253 µM): 0.606
relative viability (A-427; first compound 0.8 µM): 0.527
relative viability (A-427; first compound 2.53 µM): 0.518
relative viability (NCI-H727; first compound 0.08 µM): 0.805
relative viability (NCI-H727; first compound 0.8 µM): 0.934
relative viability (NCI-H727; first compound 2.53 µM): 0.653
relative viability (LU99A; first compound 0.08 µM): 0.986
relative viability (LU99A; first compound 0.253 µM): 0.725
relative viability (LU99A; first compound 0.8 µM): 0.807
relative viability (LU99A; first compound 2.53 µM): 0.921
relative viability (EKVX; first compound 0.08 µM): 0.329
relative viability (EKVX; first compound 0.253 µM): 0.336
relative viability (EKVX; first compound 0.8 µM): 0.356
relative viability (EKVX; first compound 2.53 µM): 0.262
relative viability (PC-14; first compound 0.08 µM): 0.203
relative viability (PC-14; first compound 0.253 µM): 0.224
relative viability (PC-14; first compound 0.8 µM): 0.165
relative viability (PC-14; first compound 2.53 µM): 0.18
relative viability (NCI-H322M; first compound 0.08 µM): 0.684
relative viability (NCI-H322M; first compound 0.253 µM): 0.619
relative viability (NCI-H322M; first compound 0.8 µM): 0.653
relative viability (NCI-H322M; first compound 2.53 µM): 0.566
relative viability (SK-LU-1; first compound 0.08 µM): 0.665
relative viability (SK-LU-1; first compound 0.253 µM): 0.523
relative viability (SK-LU-1; first compound 0.8 µM): 0.652
relative viability (SK-LU-1; first compound 2.53 µM): 0.688
relative viability (NCI-H1793; first compound 0.08 µM): 0.506
relative viability (NCI-H1793; first compound 0.253 µM): 0.403
relative viability (NCI-H1793; first compound 0.8 µM): 0.549
relative viability (NCI-H1793; first compound 2.53 µM): 0.416
relative viability (NCI-H1666; first compound 0.08 µM): 0.747
relative viability (NCI-H1666; first compound 0.253 µM): 0.674
relative viability (NCI-H1666; first compound 0.8 µM): 0.678
relative viability (NCI-H1666; first compound 2.53 µM): 0.531
relative viability (LOU-NH91; first compound 0.08 µM): 0.806
relative viability (LOU-NH91; first compound 0.253 µM): 0.75
relative viability (LOU-NH91; first compound 0.8 µM): 0.819
relative viability (LOU-NH91; first compound 2.53 µM): 0.801
relative viability (COR-L23; first compound 0.08 µM): 0.444
relative viability (COR-L23; first compound 0.253 µM): 0.414
relative viability (COR-L23; first compound 0.8 µM): 0.424
relative viability (COR-L23; first compound 2.53 µM): 0.378
relative viability (NCI-H1944; first compound 0.08 µM): 0.424
relative viability (NCI-H1944; first compound 0.253 µM): 0.439
relative viability (NCI-H1944; first compound 0.8 µM): 0.44
relative viability (NCI-H1944; first compound 2.53 µM): 0.403
relative viability (NCI-H1650; first compound 0.08 µM): 0.407
relative viability (NCI-H1650; first compound 0.253 µM): 0.445
relative viability (NCI-H1650; first compound 0.8 µM): 0.361
relative viability (NCI-H1650; first compound 2.53 µM): 0.439
relative viability (NCI-H520; first compound 0.08 µM): 0.54
relative viability (NCI-H520; first compound 0.8 µM): 0.457
relative viability (NCI-H520; first compound 2.53 µM): 0.495
relative viability (HARA; first compound 0.08 µM): 0.552
relative viability (HARA; first compound 0.253 µM): 0.51
relative viability (HARA; first compound 0.8 µM): 0.626
relative viability (HARA; first compound 2.53 µM): 0.379
relative viability (PC-3 [JPC-3]; first compound 0.253 µM): 0.724
relative viability (PC-3 [JPC-3]; first compound 0.8 µM): 0.837
relative viability (PC-3 [JPC-3]; first compound 2.53 µM): 0.784
relative viability (NCI-H3122; first compound 0.08 µM): 0.572
relative viability (NCI-H3122; first compound 0.253 µM): 0.401
relative viability (NCI-H3122; first compound 0.8 µM): 0.51
relative viability (NCI-H3122; first compound 2.53 µM): 0.394
relative viability (NCI-H2170; first compound 0.08 µM): 0.472
relative viability (NCI-H2170; first compound 0.253 µM): 0.484
relative viability (NCI-H2170; first compound 0.8 µM): 0.455
relative viability (NCI-H2170; first compound 2.53 µM): 0.385
relative viability (LCLC-103H; first compound 0.08 µM): 0.756
relative viability (LCLC-103H; first compound 0.253 µM): 0.587
relative viability (LCLC-103H; first compound 0.8 µM): 0.687
relative viability (LCLC-103H; first compound 2.53 µM): 0.642
relative viability (NCI-H1915; first compound 0.08 µM): 0.253
relative viability (NCI-H1915; first compound 0.253 µM): 0.25
relative viability (NCI-H1915; first compound 0.8 µM): 0.265
relative viability (NCI-H1915; first compound 2.53 µM): 0.268
relative viability (BEN; first compound 0.08 µM): 0.73
relative viability (BEN; first compound 0.253 µM): 0.72
relative viability (BEN; first compound 0.8 µM): 0.763
relative viability (BEN; first compound 2.53 µM): 0.597
relative viability (LC-2-ad; first compound 0.08 µM): 0.786
relative viability (LC-2-ad; first compound 0.253 µM): 0.719
relative viability (LC-2-ad; first compound 0.8 µM): 0.872
relative viability (LC-2-ad; first compound 2.53 µM): 0.733
relative viability (NCI-H2087; first compound 0.08 µM): 0.28
relative viability (NCI-H2087; first compound 0.253 µM): 0.297
relative viability (NCI-H2087; first compound 0.8 µM): 0.302
relative viability (NCI-H2087; first compound 2.53 µM): 0.243

Source: the supplement of paper PMC10307832
